Results published in article PMC5215309 (European Journal of Nuclear Medicine and Molecular Imaging, 2016).

Molecular target: T1, PDE10A (Macaca fascicularis, UniProt A0A2K5WSP5)
T1 construct: native enzyme in living brain (in vivo PET; striatum, globus pallidus, substantia nigra)
T1 sequence (A0A2K5WSP5 1-791): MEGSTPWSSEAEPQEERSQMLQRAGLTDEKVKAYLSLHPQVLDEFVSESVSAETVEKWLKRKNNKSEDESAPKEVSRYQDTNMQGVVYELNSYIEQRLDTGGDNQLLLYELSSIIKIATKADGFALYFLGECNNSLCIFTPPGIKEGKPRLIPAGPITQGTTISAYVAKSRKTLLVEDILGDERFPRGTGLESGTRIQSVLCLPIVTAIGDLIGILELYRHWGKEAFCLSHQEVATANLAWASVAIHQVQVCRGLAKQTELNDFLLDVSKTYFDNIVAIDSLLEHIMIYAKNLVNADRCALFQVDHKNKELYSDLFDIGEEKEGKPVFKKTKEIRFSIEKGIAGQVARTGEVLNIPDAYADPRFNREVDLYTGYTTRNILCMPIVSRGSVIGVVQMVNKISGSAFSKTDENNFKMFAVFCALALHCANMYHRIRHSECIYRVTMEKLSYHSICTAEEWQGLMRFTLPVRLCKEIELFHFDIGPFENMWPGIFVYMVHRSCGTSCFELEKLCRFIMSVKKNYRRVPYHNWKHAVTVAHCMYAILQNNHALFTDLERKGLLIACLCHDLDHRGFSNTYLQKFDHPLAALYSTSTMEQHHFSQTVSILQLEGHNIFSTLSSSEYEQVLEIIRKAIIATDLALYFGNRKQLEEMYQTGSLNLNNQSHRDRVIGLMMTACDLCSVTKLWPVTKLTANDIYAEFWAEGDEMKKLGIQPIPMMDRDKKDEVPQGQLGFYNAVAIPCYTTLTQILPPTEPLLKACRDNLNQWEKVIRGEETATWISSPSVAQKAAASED
Assay: in vivo PET competition with […]Lu AE92686, Lassen plot
Conditions: two monkeys; i.v. pretreatment, mean plasma concentrations 685 and 749 ng/mL

- % PDE10A occupancy at […]: 93 and 95
Structure (SMILES): Cn1cc(-c2ccncc2)c(-c2ccc(OCc3ccc4ccccc4n3)cc2)n1 [MP-10]
